Literature values as cited in US20150209399A1, “Methods For Enhacement Of Dehydroepiandrosterone Using Green Coffee Bean Extract” (Applied Food Sciences, Inc., priority 2013, published 2015).

How the values were obtained:
[1] = human, in vivo
[2] = test system: platelet aggregation; details: four of the five test subjects who received DHEA; second week
[3] = test system: human coxsackievirus B4 strain
[4] = 300 mg DHEA per day orally, second week; baseline 316.2

Compound | half-life [1] | rate of platelet aggregation [2] | mortality of infected animals treated with DHEA ([3]; 100,000 plaque forming units/animal, about 90% mortality in infected animals) | elevation in the number of antibody forming cells ([3]; within the animal) | mean serum DHEA-S level, DHEA group [4]
chlorogenic acids | less than 12 hours | – | – | – | –
C[C@]12CCC(O)CC1=CC[C@@H]1[C@@H]2CC[C@]2(C)C(=O)CC[C@@H]12 (some centres unmarked) [DHEA, 3-hydroxyandrost-5-en-17-one] | – | slower rate of aggregation | 37% | 80% | 1451.9 ± 56.7 µg/dL
